In patent US8642609B2, “Modulators of ATP-binding cassette transporters” (Vertex Pharmaceuticals Incorporated, priority 2003, dated 2014):

Molecular target: T1, ΔF508-CFTR (Homo sapiens, UniProt P13569, DEL508-508)
T1 construct: expressed in transfected cells
Assay: Membrane potential optical assay (FRET/VIPR), identification of correction compounds
Type: cell-based
How it was run: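 NIH3T3 cells stably expressing ΔF508-CFTR incubated 16 hrs at 37° C in serum-free medium with test compound; 27° C incubation as positive control. CFTR then activated with 10 μM forskolin plus 20 μM genistein in Cl^−-free medium; depolarization read by DiSBAC2(3)/CC2-DMPE FRET on VIPR.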

T1 sequence (P13569 with tags, fused parts or gaps DEL508-508): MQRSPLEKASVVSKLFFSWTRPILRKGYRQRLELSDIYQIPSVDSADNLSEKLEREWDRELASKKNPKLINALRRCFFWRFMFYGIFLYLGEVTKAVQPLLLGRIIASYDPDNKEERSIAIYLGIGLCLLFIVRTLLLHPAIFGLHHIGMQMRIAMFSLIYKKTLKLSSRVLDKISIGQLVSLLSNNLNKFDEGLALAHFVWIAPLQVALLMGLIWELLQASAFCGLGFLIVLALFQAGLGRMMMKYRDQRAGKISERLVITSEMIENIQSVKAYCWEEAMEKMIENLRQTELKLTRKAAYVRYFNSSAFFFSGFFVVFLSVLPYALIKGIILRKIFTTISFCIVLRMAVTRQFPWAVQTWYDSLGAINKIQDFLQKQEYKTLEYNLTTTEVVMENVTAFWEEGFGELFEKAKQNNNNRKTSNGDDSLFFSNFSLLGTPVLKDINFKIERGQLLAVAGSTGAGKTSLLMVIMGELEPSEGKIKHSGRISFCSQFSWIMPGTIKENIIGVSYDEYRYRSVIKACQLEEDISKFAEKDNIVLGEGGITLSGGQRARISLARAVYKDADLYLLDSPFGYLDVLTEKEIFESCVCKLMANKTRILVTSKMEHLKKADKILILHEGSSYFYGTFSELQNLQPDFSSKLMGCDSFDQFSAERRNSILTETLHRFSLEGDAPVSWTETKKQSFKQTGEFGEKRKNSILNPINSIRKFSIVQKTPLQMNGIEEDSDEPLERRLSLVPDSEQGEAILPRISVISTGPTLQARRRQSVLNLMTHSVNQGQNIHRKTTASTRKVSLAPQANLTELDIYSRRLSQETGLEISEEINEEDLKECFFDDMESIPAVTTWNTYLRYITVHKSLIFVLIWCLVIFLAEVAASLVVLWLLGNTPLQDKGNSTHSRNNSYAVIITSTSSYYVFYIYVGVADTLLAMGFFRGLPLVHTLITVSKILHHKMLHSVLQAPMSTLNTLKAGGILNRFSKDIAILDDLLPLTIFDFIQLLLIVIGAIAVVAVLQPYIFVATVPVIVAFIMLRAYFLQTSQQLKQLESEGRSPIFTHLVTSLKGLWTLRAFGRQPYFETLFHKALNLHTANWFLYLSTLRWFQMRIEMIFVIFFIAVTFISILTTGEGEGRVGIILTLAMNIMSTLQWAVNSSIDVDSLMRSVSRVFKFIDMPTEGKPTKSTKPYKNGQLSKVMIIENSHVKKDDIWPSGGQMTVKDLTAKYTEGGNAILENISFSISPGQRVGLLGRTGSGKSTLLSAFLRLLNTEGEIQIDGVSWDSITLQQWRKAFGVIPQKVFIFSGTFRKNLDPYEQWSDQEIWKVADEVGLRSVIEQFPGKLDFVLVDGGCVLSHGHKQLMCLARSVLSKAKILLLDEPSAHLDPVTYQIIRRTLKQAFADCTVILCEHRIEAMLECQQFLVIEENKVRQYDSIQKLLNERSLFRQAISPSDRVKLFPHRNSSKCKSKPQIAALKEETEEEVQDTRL

EC50 [µM] | Emax (relative efficacy) [%] | % Efficacy (relative efficacy) | SMILES
< 10 | 25 to 100 | – | COc1ccc(S(=O)(=O)N2CCN(C(C)c3nc4ccc(NC(C)=O)cc4c(=O)n3C)CC2)cc1 (centres unmarked) [compound 155]
10 to 25 | 25 to 100 | – | CC(c1nc2ccc(C(N)=O)cc2c(=O)n1C)N1CCN(S(=O)(=O)c2ccc(Br)cc2)CC1 (centres unmarked) [compound 156]
25 to 60 | 25 to 100 | – | CC(c1nc2ccc(C(N)=O)cc2c(=O)n1C)N1CCN(S(=O)(=O)c2ccc(Cl)cc2)CC1 (centres unmarked) [compound 157]
25 to 60 | < 25 | – | CCCOc1nc(CC)nc2ccccc12 [compound 158]
25 to 60 | < 25 | – | CCc1nc(N(C)C)c2ccccc2n1 [compound 159]
25 to 60 | < 25 | – | COc1ccc(S(=O)(=O)NC2CCN(C(C)c3nc4ccccc4c(=O)n3C)C2)cc1 (centres unmarked) [compound 161]
25 to 60 | < 25 | – | CC(c1nc2ccccc2c(=O)n1C)N1CCC(NS(=O)(=O)c2ccc(Cl)cc2)C1 (centres unmarked) [compound 162]
25 to 60 | < 25 | – | CC(c1nc2ccccc2c(=O)n1C)N1CCC(NS(=O)(=O)c2ccc(Br)cc2)C1 (centres unmarked) [compound 163]
25 to 60 | 25 to 100 | – | COc1ccc(S(=O)(=O)NC2CCN(C(C)c3nc4ccccc4c(=O)n3C)CC2)cc1 (centres unmarked) [compound 164]
< 10 | 25 to 100 | – | CC(c1nc2ccccc2c(=O)n1C)N1CCC(NS(=O)(=O)c2ccc(Cl)cc2)CC1 (centres unmarked) [compound 165]
< 10 | 25 to 100 | – | CC(c1nc2ccccc2c(=O)n1C)N1CCC(NS(=O)(=O)c2ccc(Br)cc2)CC1 (centres unmarked) [compound 166]
25 to 60 | < 25 | – | COc1ccc(S(=O)(=O)NCCNC(C)c2nc3ccccc3c(=O)n2C)cc1 (centres unmarked) [compound 167]
25 to 60 | < 25 | – | CC(NCCNS(=O)(=O)c1ccc(Cl)cc1)c1nc2ccccc2c(=O)n1C (centres unmarked) [compound 168]
25 to 60 | 25 to 100 | – | CC(NCCNS(=O)(=O)c1ccc(Br)cc1)c1nc2ccccc2c(=O)n1C (centres unmarked) [compound 169]
25 to 60 | 25 to 100 | – | COc1ccc(S(=O)(=O)N2CCCN(C(C)c3nc4ccccc4c(=O)n3C)CC2)cc1 (centres unmarked) [compound 170]
10 to 25 | 25 to 100 | – | CC(c1nc2ccccc2c(=O)n1C)N1CCCN(S(=O)(=O)c2ccc(Cl)cc2)CC1 (centres unmarked) [compound 171]
< 10 | 25 to 100 | – | CC(c1nc2ccccc2c(=O)n1C)N1CCCN(S(=O)(=O)c2ccc(Br)cc2)CC1 (centres unmarked) [compound 172]
25 to 60 | 25 to 100 | – | CC(NCCCNS(=O)(=O)c1ccc(Cl)cc1)c1nc2ccccc2c(=O)n1C (centres unmarked) [compound 173]
25 to 60 | 25 to 100 | – | CC(NCCCNS(=O)(=O)c1ccc(Br)cc1)c1nc2ccccc2c(=O)n1C (centres unmarked) [compound 174]
25 to 60 | < 25 | – | COc1ccc(S(=O)(=O)N2CC3CC2CN3C(C)c2nc3ccccc3c(=O)n2C)cc1 (centres unmarked) [compound 175]
25 to 60 | 25 to 100 | – | CC(c1nc2ccccc2c(=O)n1C)N1CC2CC1CN2S(=O)(=O)c1ccc(Cl)cc1 (centres unmarked) [compound 176]
25 to 60 | 25 to 100 | – | CC(c1nc2ccccc2c(=O)n1C)N1CC2CC1CN2S(=O)(=O)c1ccc(Br)cc1 (centres unmarked) [compound 177]

EC50 [µM] | Emax (relative efficacy) [%] | % Efficacy (relative efficacy) | SMILES
25 to 60 | < 25 | – | CC(c1nc2ccccc2c(=O)n1C)N1CCC(N)C1 (centres unmarked) [compound 178]
25 to 60 | < 25 | – | CC(NC1CCNCC1)c1nc2ccccc2c(=O)n1C (centres unmarked) [compound 179]
25 to 60 | < 25 | – | CC(c1nc2ccccc2c(=O)n1C)N1CCC(N)CC1 (centres unmarked) [compound 180]
25 to 60 | < 25 | – | CC(NCCN)c1nc2ccccc2c(=O)n1C (centres unmarked) [compound 181]
25 to 60 | < 25 | – | CNCCNC(C)c1nc2ccccc2c(=O)n1C (centres unmarked) [compound 182]
– | < 25 | – | CC(NCC1CCCCN1)c1nc2ccccc2c(=O)n1C (centres unmarked) [compound 183]
25 to 60 | – | – | CC(NC[C@@H]1CCCCN1)c1nc2ccccc2c(=O)n1C (some centres unmarked) [compound 183]
25 to 60 | < 25 | – | CC(c1nc2ccccc2c(=O)n1C)N1CCCNCC1 (centres unmarked) [compound 184]
25 to 60 | < 25 | – | CC(NCCCN)c1nc2ccccc2c(=O)n1C (centres unmarked) [compound 185]
25 to 60 | 25 to 100 | – | COc1ccc(S(=O)(=O)N2CCN(C(C)c3nc(OC)c4ccccc4n3)CC2)cc1 (centres unmarked) [compound 187]
10 to 25 | > 100 | – | CCOc1nc(C(C)N2CCN(S(=O)(=O)c3ccc(OC)cc3)CC2)nc2ccccc12 (centres unmarked) [compound 188]
10 to 25 | > 100 | – | CCCOc1nc(C(C)N2CCN(S(=O)(=O)c3ccc(OC)cc3)CC2)nc2ccccc12 (centres unmarked) [compound 189]
< 10 | > 100 | – | COc1ccc(S(=O)(=O)N2CCN(C(C)c3nc(OC(C)C)c4ccccc4n3)CC2)cc1 (centres unmarked) [compound 190]
< 10 | – | +++ (“+++” means >100%) | COc1ccc(S(=O)(=O)N2CCN(C(C)c3nc(OC4CCCC4)c4ccccc4n3)CC2)cc1 (centres unmarked) [compound 191]
25 to 60 | 25 to 100 | – | CNc1nc(C(C)N2CCN(S(=O)(=O)c3ccc(OC)cc3)CC2)nc2ccccc12 (centres unmarked) [compound 192]
25 to 60 | 25 to 100 | – | COc1ccc(S(=O)(=O)N2CCN(C(C)c3nc(N(C)C)c4ccccc4n3)CC2)cc1 (centres unmarked) [compound 193]
25 to 60 | 25 to 100 | – | CCNc1nc(C(C)N2CCN(S(=O)(=O)c3ccc(OC)cc3)CC2)nc2ccccc12 (centres unmarked) [compound 194]
10 to 25 | 25 to 100 | – | CCN(CC)c1nc(C(C)N2CCN(S(=O)(=O)c3ccc(OC)cc3)CC2)nc2ccccc12 (centres unmarked) [compound 195]
25 to 60 | 25 to 100 | – | COc1ccc(S(=O)(=O)N2CCN(C(C)c3nc(N4CCOCC4)c4ccccc4n3)CC2)cc1 (centres unmarked) [compound 196]
25 to 60 | 25 to 100 | – | COc1ccc(S(=O)(=O)NCCN(C(C)c2nc3ccccc3c(=O)n2C)S(=O)(=O)c2ccc(OC)cc2)cc1 (centres unmarked) [compound 197]
25 to 60 | < 25 | – | CC(c1nc2ccccc2c(=O)n1C)N(CCNS(=O)(=O)c1ccc(Cl)cc1)S(=O)(=O)c1ccc(Cl)cc1 (centres unmarked) [compound 198]
25 to 60 | < 25 | – | CC(c1nc2ccccc2c(=O)n1C)N(CCNS(=O)(=O)c1ccc(Br)cc1)S(=O)(=O)c1ccc(Br)cc1 (centres unmarked) [compound 199]

EC50 [µM] | Emax (relative efficacy) [%] | % Efficacy (relative efficacy) | SMILES
25 to 60 | < 25 | – | COc1ccc(S(=O)(=O)N(C)CCN(C(C)c2nc3ccccc3c(=O)n2C)S(=O)(=O)c2ccc(OC)cc2)cc1 (centres unmarked) [compound 200]
25 to 60 | < 25 | – | CC(c1nc2ccccc2c(=O)n1C)N(CCN(C)S(=O)(=O)c1ccc(Cl)cc1)S(=O)(=O)c1ccc(Cl)cc1 (centres unmarked) [compound 201]
25 to 60 | < 25 | – | CC(c1nc2ccccc2c(=O)n1C)N(CCN(C)S(=O)(=O)c1ccc(Br)cc1)S(=O)(=O)c1ccc(Br)cc1 (centres unmarked) [compound 202]
25 to 60 | < 25 | – | COc1ccc(S(=O)(=O)N(C[C@@H]2CCCCN2S(=O)(=O)c2ccc(OC)cc2)C(C)c2nc3ccccc3c(=O)n2C)cc1 (some centres unmarked) [compound 203]
25 to 60 | < 25 | – | CC(c1nc2ccccc2c(=O)n1C)N(C[C@@H]1CCCCN1S(=O)(=O)c1ccc(Br)cc1)S(=O)(=O)c1ccc(Br)cc1 (some centres unmarked) [compound 204]
25 to 60 | < 25 | – | COc1ccc(S(=O)(=O)NCCCN(C(C)c2nc3ccccc3c(=O)n2C)S(=O)(=O)c2ccc(OC)cc2)cc1 (centres unmarked) [compound 205]
25 to 60 | < 25 | – | CC(c1nc2ccccc2c(=O)n1C)N(CCCNS(=O)(=O)c1ccc(Cl)cc1)S(=O)(=O)c1ccc(Cl)cc1 (centres unmarked) [compound 206]
< 10 | 25 to 100 | – | CC(c1nc2ccccc2c(=O)n1C)N(CCCNS(=O)(=O)c1ccc(Br)cc1)S(=O)(=O)c1ccc(Br)cc1 (centres unmarked) [compound 207]
25 to 60 | 25 to 100 | – | COc1ccc(S(=O)(=O)N2CCC(NC(C)c3nc4ccccc4c(=O)n3C)CC2)cc1 (centres unmarked) [compound 208]
10 to 25 | 25 to 100 | – | CC(NC1CCN(S(=O)(=O)c2ccc(Cl)cc2)CC1)c1nc2ccccc2c(=O)n1C (centres unmarked) [compound 209]
< 10 | > 100 | – | CC(NC1CCN(S(=O)(=O)c2ccc(Br)cc2)CC1)c1nc2ccccc2c(=O)n1C (centres unmarked) [compound 210]
25 to 60 | < 25 | – | COc1ccc(S(=O)(=O)N(C)CCNC(C)c2nc3ccccc3c(=O)n2C)cc1 (centres unmarked) [compound 211]
25 to 60 | < 25 | – | CC(NCCN(C)S(=O)(=O)c1ccc(Cl)cc1)c1nc2ccccc2c(=O)n1C (centres unmarked) [compound 212]
25 to 60 | < 25 | – | CC(NCCN(C)S(=O)(=O)c1ccc(Br)cc1)c1nc2ccccc2c(=O)n1C (centres unmarked) [compound 213]
25 to 60 | < 25 | – | CC(NC[C@@H]1CCCCN1S(=O)(=O)c1ccc(Cl)cc1)c1nc2ccccc2c(=O)n1C (some centres unmarked) [compound 214]
25 to 60 | < 25 | – | CC(NC[C@@H]1CCCCN1S(=O)(=O)c1ccc(Br)cc1)c1nc2ccccc2c(=O)n1C (some centres unmarked) [compound 215]
< 10 | > 100 | – | CCCOc1nc(C(C)N2CCN(S(=O)(=O)c3ccc(Br)cc3)CC2)nc2ccccc12 (centres unmarked) [compound 216]
< 10 | > 100 | – | CC(C)Oc1nc(C(C)N2CCN(S(=O)(=O)c3ccc(Br)cc3)CC2)nc2ccccc12 (centres unmarked) [compound 217]
< 10 | > 100 | – | CC(c1nc(OC2CCCC2)c2ccccc2n1)N1CCN(S(=O)(=O)c2ccc(Br)cc2)CC1 (centres unmarked) [compound 218]
25 to 60 | 25 to 100 | – | CNc1nc(C(C)N2CCN(S(=O)(=O)c3ccc(Br)cc3)CC2)nc2ccccc12 (centres unmarked) [compound 219]

SMILES | EC50 [µM] | Emax (relative efficacy) [%] | % Efficacy (relative efficacy)
CC(c1nc2ccccc2c(=O)n1C)N1CC2CC1CN2 (centres unmarked) [compound 186] | 25 to 60 | < 25 | –
